In patent publication US10980892B2, “Methods for the treatment of leptomeningeal carcinomatosis” (Angiochem Inc., priority 2015, dated 2021):
Blank lines part the entries; values can stand above or below the molecule they belong to.

Legend:
LRP receptor [1] = experiment: Inhibition of brain uptake of an Angiopep conjugate by LRP ligands
Description: (§1) The methods of the invention may be especially useful in treating cancers having cells that express low density lipoprotein-related protein (LRP) receptor. The LRP receptor is expressed on the surface of cells, and is capable of binding to various substrates including aprotinin. The polypeptides described herein were designed based on the consensus kunitz-domain sequences that act as LRP receptor ligands (see, e.g., PCT Publication No. WO 2004/060403). Uptake of the conjugates including Angiopep-1 or Angiopep-2 is inhibited by LRP ligands, thus indicating involvement of LRP in this process.

LRP receptor [2] = molecular target: T1, LRP receptor (Homo sapiens, UniProt Q07954); experiment: Inhibition of uptake of Angiopep conjugates into cells; type: cell-based; settings: Angiopep-2 10 or 100 μM
T1 construct: The LRP receptor is expressed on the surface of cells; endogenous in cells
Description: as §1

[3] = tested on: leptomeningeal carcinomatosis (LC); experiment: Treatment of LC in breast cancer subjects, CNS RECIST brain parenchymal tumor response; type: in vivo, human; settings: 600 mg/m^2 iv tri-weekly
Experimental: Twenty-eight subjects diagnosed with LC were administered 600 mg/m^2 of ANG1005 intravenously on a tri-weekly schedule. The subjects received between one and nine cycles of ANG1005.
The results of the treatment of the subjects according to CNS Response Evaluation Criteria in Solid Tumors (RECIST) based on brain parenchymal tumor response is shown in Table 2.

[4] = tested on: leptomeningeal carcinomatosis; experiment: Kaplan-Meier estimates of survival for subjects with LC; type: in vivo, human; settings: compared to historical median overall survival of 3-6 months following aggressive treatment
Description: The Kaplan-Meier method was used to estimate the overall survival of LC subjects treated with ANG1005.

[5] = tested on: leptomeningeal carcinomatosis; experiment: Treatment of individual LC subjects with ANG1005 (Subjects 2, 3, 4, 8); type: in vivo, human
Description: Subject 2 presented at the time of treatment with ANG1005 with an active tumor extending from the deep portion of the surgical cavity to the right tentorial surface and along the lateral right temporal occipital dural surface. Subject 2 started treatment with ANG1005 in October 2014 and received 7 cycles (once every three weeks). Treatment was terminated due to clinical disease progression.
Subject 3 presented at the time of treatment with ANG1005 with numerous (>10) brain metastases all of which had increased in size despite prior treatment. Extensive scattered osseous metastatic disease in head/neck. After presenting with a numb chin (left trigeminal cranial nerve deficits), Subject 3 was also found to have leptomeningeal disease. Subject 3 started treatment with ANG1005 in September 2014 and received 5 cycles (once every three weeks). Treatment was terminated due to adverse event (pneumonia).
Subject 4 is a person diagnosed in October 2011 with HER2+/ER−/PgR− ductal carcinoma in situ. In November 2012, Subject 4 was diagnosed with brain metastases, and in March 2015 the brain metastases relapsed with leptomeningeal carcinomatosis. Subject 4 previously received several courses of therapy including carboplatin from October to November 2011, denosumab from November 2011 to November 2012, paclitaxel from December 2011 to March 2012, WBRT, transtuzumab from May 2012 to November 2012, and kadcyla from April 2013 to December 2014. Subject 4 presented at the time of treatment with ANG1005 with parenchymal metastases present in the cerebellum and widespread LC of the cerebellum and cerebral hemispheres. In addition, Subject 4 presented with mild ventricular enlargement with compression upon the fourth ventricle and cutflow tracts. Subject 4 started treatment with ANG1005 in March 2015 and received 8 cycles (once every three weeks). Subject withdrew from treatment due to low performance scores.
Subject 8 started treatment with ANG1005 in April 2015 and received 2 cycles (once every three weeks). Subject 8 terminated from treatment in July 2015 due to clinical progression.

T1 sequence (Q07954 20-4544): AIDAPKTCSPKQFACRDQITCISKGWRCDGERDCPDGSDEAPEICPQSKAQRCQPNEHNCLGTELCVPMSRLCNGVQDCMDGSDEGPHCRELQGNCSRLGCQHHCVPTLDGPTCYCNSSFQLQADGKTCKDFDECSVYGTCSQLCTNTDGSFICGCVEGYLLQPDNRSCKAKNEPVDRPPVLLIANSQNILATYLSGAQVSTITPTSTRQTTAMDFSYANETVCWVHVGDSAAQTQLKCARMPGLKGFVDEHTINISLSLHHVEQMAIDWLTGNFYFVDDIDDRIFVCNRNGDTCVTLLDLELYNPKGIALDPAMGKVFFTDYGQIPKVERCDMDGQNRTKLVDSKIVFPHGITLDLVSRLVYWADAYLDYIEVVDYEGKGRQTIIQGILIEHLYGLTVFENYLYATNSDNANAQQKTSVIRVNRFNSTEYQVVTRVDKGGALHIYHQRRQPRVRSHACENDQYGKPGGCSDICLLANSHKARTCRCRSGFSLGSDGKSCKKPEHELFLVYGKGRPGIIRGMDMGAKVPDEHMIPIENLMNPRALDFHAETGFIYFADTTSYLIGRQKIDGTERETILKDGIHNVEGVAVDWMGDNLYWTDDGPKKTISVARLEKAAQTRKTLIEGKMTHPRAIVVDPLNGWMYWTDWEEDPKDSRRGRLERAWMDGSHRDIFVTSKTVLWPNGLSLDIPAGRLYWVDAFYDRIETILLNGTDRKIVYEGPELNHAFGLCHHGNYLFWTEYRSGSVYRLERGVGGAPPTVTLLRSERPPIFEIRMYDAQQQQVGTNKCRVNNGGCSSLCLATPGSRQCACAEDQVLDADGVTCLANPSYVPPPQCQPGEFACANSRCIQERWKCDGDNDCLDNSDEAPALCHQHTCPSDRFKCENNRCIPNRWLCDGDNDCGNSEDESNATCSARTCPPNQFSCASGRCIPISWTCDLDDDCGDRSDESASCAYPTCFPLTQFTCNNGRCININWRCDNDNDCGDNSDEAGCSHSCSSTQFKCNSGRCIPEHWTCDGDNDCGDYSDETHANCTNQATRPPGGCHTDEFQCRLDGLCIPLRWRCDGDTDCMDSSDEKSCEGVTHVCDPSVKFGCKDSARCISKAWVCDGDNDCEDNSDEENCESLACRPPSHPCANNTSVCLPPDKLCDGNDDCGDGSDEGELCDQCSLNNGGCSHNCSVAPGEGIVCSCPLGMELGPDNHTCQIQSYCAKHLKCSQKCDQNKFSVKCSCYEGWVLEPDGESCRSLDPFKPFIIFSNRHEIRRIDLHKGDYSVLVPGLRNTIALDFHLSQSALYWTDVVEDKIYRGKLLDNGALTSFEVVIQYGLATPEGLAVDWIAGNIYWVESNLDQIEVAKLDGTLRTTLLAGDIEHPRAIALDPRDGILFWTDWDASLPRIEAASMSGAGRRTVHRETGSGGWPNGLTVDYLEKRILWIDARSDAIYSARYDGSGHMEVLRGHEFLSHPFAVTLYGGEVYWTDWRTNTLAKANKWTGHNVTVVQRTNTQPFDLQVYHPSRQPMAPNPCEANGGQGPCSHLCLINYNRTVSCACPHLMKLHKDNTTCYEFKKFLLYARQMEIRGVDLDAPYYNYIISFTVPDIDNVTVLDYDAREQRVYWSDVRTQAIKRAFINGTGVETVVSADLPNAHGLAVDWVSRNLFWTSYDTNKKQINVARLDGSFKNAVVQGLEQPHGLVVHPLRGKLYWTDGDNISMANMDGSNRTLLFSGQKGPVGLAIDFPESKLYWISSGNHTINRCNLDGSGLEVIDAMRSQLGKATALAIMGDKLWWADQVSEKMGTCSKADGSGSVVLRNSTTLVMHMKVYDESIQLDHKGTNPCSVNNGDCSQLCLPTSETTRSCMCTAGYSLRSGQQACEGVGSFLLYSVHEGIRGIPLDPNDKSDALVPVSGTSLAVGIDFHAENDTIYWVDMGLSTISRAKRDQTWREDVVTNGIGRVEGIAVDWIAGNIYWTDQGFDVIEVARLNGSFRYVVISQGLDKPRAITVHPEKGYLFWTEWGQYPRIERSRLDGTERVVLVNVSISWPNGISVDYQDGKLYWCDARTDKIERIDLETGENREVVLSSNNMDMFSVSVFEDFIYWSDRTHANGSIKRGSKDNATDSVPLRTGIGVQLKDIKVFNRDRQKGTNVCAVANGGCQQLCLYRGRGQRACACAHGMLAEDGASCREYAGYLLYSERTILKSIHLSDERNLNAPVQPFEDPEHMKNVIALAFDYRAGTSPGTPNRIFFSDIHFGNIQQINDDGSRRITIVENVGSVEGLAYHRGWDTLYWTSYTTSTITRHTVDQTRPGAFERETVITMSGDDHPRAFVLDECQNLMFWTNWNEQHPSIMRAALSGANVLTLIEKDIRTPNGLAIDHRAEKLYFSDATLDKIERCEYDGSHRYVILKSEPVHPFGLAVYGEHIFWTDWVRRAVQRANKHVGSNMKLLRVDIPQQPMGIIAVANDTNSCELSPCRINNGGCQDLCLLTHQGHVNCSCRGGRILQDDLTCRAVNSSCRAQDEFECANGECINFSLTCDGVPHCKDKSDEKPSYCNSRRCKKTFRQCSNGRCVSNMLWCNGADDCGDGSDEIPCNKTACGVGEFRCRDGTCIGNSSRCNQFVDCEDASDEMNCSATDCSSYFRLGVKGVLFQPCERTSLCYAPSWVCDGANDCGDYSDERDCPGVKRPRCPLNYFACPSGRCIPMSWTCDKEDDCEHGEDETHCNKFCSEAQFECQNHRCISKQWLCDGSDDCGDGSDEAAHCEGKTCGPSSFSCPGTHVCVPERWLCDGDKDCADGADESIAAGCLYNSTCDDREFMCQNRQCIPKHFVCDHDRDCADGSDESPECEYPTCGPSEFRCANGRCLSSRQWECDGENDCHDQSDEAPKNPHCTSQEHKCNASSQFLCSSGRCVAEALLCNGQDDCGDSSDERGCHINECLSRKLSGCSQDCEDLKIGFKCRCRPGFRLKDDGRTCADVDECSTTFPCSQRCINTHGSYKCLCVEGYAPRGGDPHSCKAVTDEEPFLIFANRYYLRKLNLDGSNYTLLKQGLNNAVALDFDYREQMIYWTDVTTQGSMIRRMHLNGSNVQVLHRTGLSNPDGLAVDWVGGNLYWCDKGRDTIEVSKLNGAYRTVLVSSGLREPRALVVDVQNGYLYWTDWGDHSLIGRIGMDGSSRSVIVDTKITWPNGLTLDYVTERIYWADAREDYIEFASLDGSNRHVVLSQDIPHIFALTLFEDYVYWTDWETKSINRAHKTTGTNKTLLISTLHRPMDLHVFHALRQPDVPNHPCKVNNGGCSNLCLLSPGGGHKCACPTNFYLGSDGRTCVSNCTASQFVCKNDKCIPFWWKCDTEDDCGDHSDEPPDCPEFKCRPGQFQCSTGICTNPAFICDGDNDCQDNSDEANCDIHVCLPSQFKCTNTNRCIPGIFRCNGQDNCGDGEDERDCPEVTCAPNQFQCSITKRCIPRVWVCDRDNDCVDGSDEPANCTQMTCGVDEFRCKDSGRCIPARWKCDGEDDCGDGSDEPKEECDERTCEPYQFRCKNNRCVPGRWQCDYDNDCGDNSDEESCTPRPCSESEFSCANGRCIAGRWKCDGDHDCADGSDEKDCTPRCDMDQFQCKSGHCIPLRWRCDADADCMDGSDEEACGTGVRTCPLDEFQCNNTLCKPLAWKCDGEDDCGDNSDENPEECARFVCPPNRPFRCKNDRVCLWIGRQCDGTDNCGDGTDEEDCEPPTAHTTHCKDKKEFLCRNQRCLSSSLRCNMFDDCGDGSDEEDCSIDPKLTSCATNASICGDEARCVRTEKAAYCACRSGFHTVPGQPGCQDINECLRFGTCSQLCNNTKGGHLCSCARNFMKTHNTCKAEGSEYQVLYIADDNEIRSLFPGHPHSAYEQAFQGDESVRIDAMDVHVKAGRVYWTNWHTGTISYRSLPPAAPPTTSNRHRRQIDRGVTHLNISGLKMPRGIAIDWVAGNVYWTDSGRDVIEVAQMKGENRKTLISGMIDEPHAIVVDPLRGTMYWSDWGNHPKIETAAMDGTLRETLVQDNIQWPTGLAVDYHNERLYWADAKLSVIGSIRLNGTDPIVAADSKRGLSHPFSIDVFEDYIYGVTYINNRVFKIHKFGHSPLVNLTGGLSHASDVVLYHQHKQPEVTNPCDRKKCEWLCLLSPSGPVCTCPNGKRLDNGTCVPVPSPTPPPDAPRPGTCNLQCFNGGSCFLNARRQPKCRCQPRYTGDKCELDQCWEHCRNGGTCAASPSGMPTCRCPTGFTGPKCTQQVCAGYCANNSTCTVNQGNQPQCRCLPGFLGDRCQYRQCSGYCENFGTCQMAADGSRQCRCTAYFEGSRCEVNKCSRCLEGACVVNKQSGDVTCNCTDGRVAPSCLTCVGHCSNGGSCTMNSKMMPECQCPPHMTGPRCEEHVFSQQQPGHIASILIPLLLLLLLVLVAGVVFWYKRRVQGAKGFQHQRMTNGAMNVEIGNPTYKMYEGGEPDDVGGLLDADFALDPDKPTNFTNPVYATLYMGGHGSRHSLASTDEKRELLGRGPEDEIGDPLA

Effect on brain uptake of an Angiopep conjugate (LRP receptor [1]; RAP 200 nM): capable of reducing brain uptake
Molecule: RAP: LRP ligand

Effect on uptake of the conjugates into cells (LRP receptor [2]): able to reduce uptake
Molecule: TFFYGGSRGKRNNFKTEEY [Angiopep-2]

Molecule: CC(=O)O[C@H]1C(=O)[C@@]2(C)[C@H]([C@H](OC(=O)c3ccccc3)[C@]3(O)C[C@H](OC(=O)C(OC(=O)CCC(=O)NCCCC[C@H](NN[C@@H](Cc4ccccc4)C(=O)C(=O)C(CC(N)=O)NC(=O)[C@H](CC(N)=O)NC(=O)[C@H](CCCNC(=N)N)NC(=O)[C@H](CCCCNC(=O)CCC(=O)O[C@@H](C(=O)O[C@H]4C[C@@]5(O)[C@@H](OC(=O)c6ccccc6)[C@@H]6[C@]7(OC(C)=O)CO[C@@H]7C[C@H](O)[C@@]6(C)C(=O)[C@H](OC(C)=O)C(=C4C)C5(C)C)[C@@H](NC(=O)c4ccccc4)c4ccccc4)NNCC(=O)C(=O)[C@H](CCCNC(=N)N)NC(=O)[C@H](CO)NC(=O)CNC(=O)CNC(=O)C(Cc4ccc(O)cc4)NC(=O)[C@H](Cc4ccccc4)NC(=O)C(Cc4ccccc4)NCC(=O)[C@H](NC(=O)CCC(=O)O[C@@H](C(=O)O[C@H]4C[C@@]5(O)[C@@H](OC(=O)c6ccccc6)[C@@H]6[C@]7(OC(C)=O)CO[C@@H]7C[C@H](O)[C@@]6(C)C(=O)[C@H](OC(C)=O)C(=C4C)C5(C)C)[C@@H](NC(=O)c4ccccc4)c4ccccc4)C(C)O)C(=O)N[C@H](C(=O)NC(CCC(=O)O)C(=O)N[C@@H](CCC(=O)O)C(=O)NC(C=O)Cc4ccc(O)cc4)[C@@H](C)O)[C@@H](NC(=O)c4ccccc4)c4ccccc4)C(C)=C1C3(C)C)[C@]1(OC(C)=O)CO[C@@H]1C[C@@H]2O (stereo partly shown) [ANG1005]
Partial Response (PR), number of patients ([3]; All Patients (n = 23)): 5
Partial Response (PR), percent of patients ([3]; All Patients (n = 23)): (22%)
Patient Benefit (PR + SD), number of patients ([3]; All Patients (n = 23)): 17
Progressive Disease, number of patients ([3]; All Patients (n = 23)): 6
Progressive Disease, percent of patients ([3]; All Patients (n = 23)): (26%)
Stable Disease (SD), number of patients ([3]; All Patients (n = 23)): 12
Stable Disease (SD), percent of patients ([3]; All Patients (n = 23)): (52%)
Partial Response (PR), number of patients ([3]; HER2+ (n = 15)): 4
Partial Response (PR), percent of patients ([3]; HER2+ (n = 15)): (27%)
Patient Benefit (PR + SD), number of patients ([3]; HER2+ (n = 15)): 12
Progressive Disease, number of patients ([3]; HER2+ (n = 15)): 3
Progressive Disease, percent of patients ([3]; HER2+ (n = 15)): (20%)
Stable Disease (SD), number of patients ([3]; HER2+ (n = 15)): 8
Stable Disease (SD), percent of patients ([3]; HER2+ (n = 15)): (53%)
Partial Response (PR), number of patients ([3]; HER2− (n = 8)): 1
Partial Response (PR), percent of patients ([3]; HER2− (n = 8)): (12.5%)
Patient Benefit (PR + SD), number of patients ([3]; HER2− (n = 8)): 5
Patient Benefit (PR + SD), percent of patients ([3]; HER2− (n = 8)): (62.5%)
Progressive Disease, number of patients ([3]; HER2− (n = 8)): 3
Progressive Disease, percent of patients ([3]; HER2− (n = 8)): (37.5%)
Stable Disease (SD), number of patients ([3]; HER2− (n = 8)): 4
Stable Disease (SD), percent of patients ([3]; HER2− (n = 8)): (50%)
Median overall survival (Kaplan-Meier estimate) [4]: increase median overall survival
Response of leptomeningeal carcinomatosis ([5]; Subject 2, HER2+/ER−/PgR+, 7 cycles once every three weeks, dural lesion no longer apparent, leptomeningeal nodule decreasing in size): responded
Response of leptomeningeal carcinomatosis ([5]; Subject 3, HER2+/ER−/PgR−, 5 cycles once every three weeks): improved both radiographically and clinically
Adverse event causing treatment termination ([5]; Subject 3, after 5 cycles once every three weeks): pneumonia
Response of leptomeningeal carcinomatosis ([5]; Subject 4, HER2+/ER−/PgR−, 8 cycles once every three weeks, diminished nodular leptomeningeal enhancement, decreased leptomeningeal tumor burden): responded
Response of leptomeningeal carcinomatosis ([5]; Subject 8, HER2+/ER+/PgR−, 2 cycles once every three weeks, improvement in extensive LC in the cerebellum): responded

Effect on brain uptake of an Angiopep conjugate (LRP receptor [1]; aprotinin 10 μM): capable of reducing brain uptake
Molecule: aprotinin
